Laboratory results: US20240207336A1, “PURIFIED PS[…] […] ACIDIFIED ACETONE” (PSILO SCIENTIFIC LTD, priority 2021, published 2024)

Test: oxidation (decay) of psilocin over time, applicant's own data

For CN(C)CCc1c[nH]c2cccc(O)c12 [psilocin], the “decay of psilocin (oxidation)” value (after 5 hours, moist and/or high light environment) was about 25%, the “decay of psilocin (oxidation)” value (at 20 hours when shielded from light) was 40-60% and the “decay of psilocin (oxidation)” value (within 30 minutes, moist and/or high light environment) was “about 10%”.
